Entries after “also recorded” stand apart in the source; their conditions may differ.
How the values were obtained:
[1] = tested on: pan-AKT phosphorylation (pAKT) in Caki-1 cells; assay: Phosphor-AKT bioassay for MET agonist activity in Caki-1 cells; type: cell-based; conditions: 5 μg/mL
Description: Because it has been reported that MET agonistic antibodies increased hepatocyte proliferation and toxicity, a phosphor-AKT assay may be used to test MET-ADCs for MET agonist activity. Briefly stated, Caki-1 cells may be starved overnight in serum-free medium with 0.1% BSA and then treated with ADCs or naked MET antibodies at 5 μg/mL for the desired durations. Cell lysates may be analyzed for phosphorylation of pan-AKT by MSD ELISA, for example.

CFPAC-1 = assay: Cell killing, CFPAC-1; type: cell-based, human; design: key: Sensitive; Resistant; conditions: CFPAC-1, PANC Ca
Description: (§1) Briefly described, 2-3×10^3 cells/well in 100 μL of culture medium may be plated in 96 well plates and incubated overnight at 37° C., 5% CO2. The MET-ADCs, MET antibody(ies), control MMAE or control hIgG4 conjugated to MMAE with cysteine conjugation antibody(ies) may be diluted 1:3 in serum-free culture medium starting from 100 nM (final) in 50 μL as 3× concentrations to the HT-29 cells. At the end of an additional 5-6 days of cell growth at 37° C. in a humidified incubator with 5% CO2, the plates may be equilibrated to room temperature for 30 minutes and 100 μL/well of CellTiter-Glo® reagent (Promega Corp., Fitchburg, Wis.) may then be added to assess cell viability. Cell viability may be determined by measuring luminescence.
(§2) Various tumor cell lines and normal human cells may be tested for MET-ADC induced cell killing activity essentially as described above in Example 10 as assessed for MET receptor density. MET cell surface density was determined by indirect immunofluorescence staining of cell surface antigens on cultured cells using QIFIKIT (Dako). […] Following a forty-five minute incubation, cells may be incubated for 1 hour on ice with FITC conjugated antibody diluted 1:50 in FACS buffer. Then cells may be washed and receptor numbers may be determined by indirect immunofluorescence staining of the QIFIKIT beads using a Becton Dickinson LSRII flow cytometer.

HPAF-II = assay: Cell killing, HPAF-II; type: cell-based, human; design: key: Sensitive; Resistant; conditions: PANC Ca
Description: as §1, §2

Panc-1 = assay: Cell killing, Panc-1; type: cell-based, human; design: key: Sensitive; Resistant; conditions: Panc-1, PANC Ca
Description: as §1, §2

SW 1990 = assay: Cell killing, SW 1990; type: cell-based, human; design: key: Sensitive; Resistant; conditions: SW 1990, PANC Ca
Description: as §1, §2

HT-29 cells = assay: HT-29 cell-killing assay; type: cell-based, human; design: key to Sensitive/ Resistant: Sensitive; Resistant
Description: Therefore, the HT-29 cell line may be used to determine if test MET-ADCs can kill MET overexpressing tumor cells in vitro.
as §1, §2

RKO = RKO cell-killing assay; type: cell-based, human; conditions: RKO (BRAF, PIK3) colon cancer cells
Description: as §1, §2

LS411N = assay: Cell killing, LS411N; type: cell-based, human; design: key to Sensitive/ Resistant: Sensitive; Resistant
Description: as §1, §2

HCT-116 = assay: Cell killing, HCT-116; type: cell-based, human; design: key: Sensitive; Resistant; conditions: HCT-116, Colorectal Ca
Description: as §1, §2

Caco-2 = assay: Cell killing, Caco-2; type: cell-based, human; design: key: Sensitive; Resistant; conditions: Caco-2, Colorectal Ca
Description: as §1, §2

SNU1196 = assay: Cell killing, SNU1196; type: cell-based, human; design: key: Sensitive; Resistant; conditions: SNU1196, Cholangiocarcinoma
Description: as §1, §2

NCI-H292 = assay: Cell killing, NCI-H292; type: cell-based, human; design: key: Sensitive; Resistant; conditions: NCI-H292, NSCLC
Description: as §1, §2

OV79 = assay: Cell killing, OV79; type: cell-based, human; design: key: Sensitive; Resistant; conditions: OV79, Ovarian Ca
Description: as §1, §2

A204 = assay: Cell killing, A204; type: cell-based, human; design: key: Sensitive; Resistant; conditions: A204, Rhabdomyosarcoma
Description: as §1, §2

RPTEC = assay: Cell killing, non-tumor RPTEC; type: cell-based, human; design: key: Sensitive; Resistant; conditions: renal proximal tubul cell
Description: as §1, §2

BxPC-3 xenograft = assay: BxPC-3 pancreatic cancer xenograft model; type: in vivo, mouse; conditions: vs control hIgG4-Lys-ADC
Description: (§3) Female athymic nude mice age 6- to 7-weeks old are available commercially, including from Harlan Laboratories (Indianapolis, Ind.). The mice are allowed to acclimate for one week and fed ad libitum on a normal low fat (4.5%) diet, which may be continued for the duration of the study. Tumor cells may be purchased from ATCC and may be cultured in cell culture media such as RPMI 1640 (Life Technologies) with L-glutamine, 25 mM HEPES supplemented with 10% FBS and 1 mM Na Pyruvate. Cells may be detached, washed with serum free medium and then resuspended at a final concentration of 50×10^6 cells/mL in serum free RPMI 1640. Tumor cells, approximately 5×10^6, may be injected subcutaneously in the rear flank of subject mice in a 1:1 mixture of serum free growth medium and Matrigel (Becton Dickinson, Bedford, Mass.). Tumor and body weight measurements may be performed twice weekly. Prior to treatment, mice can be randomized based on tumor size using a randomization algorithm. Treatments may be started when the average tumor volume reaches 100 mm^3. […]
(§4) MET-ADCs and control hIgG4-MMAE may be prepared in Phosphate Buffered Saline (PBS) prior to dose. Tumor size may be determined by caliper measurements. […] Log volume data can be analyzed with two-way repeated measures ANOVA by time and treatment using SAS PROC MIXED software (SAS Institutes Inc, Cary, N.C.). […]

KP-4 xenograft = assay: KP-4 pancreatic cancer xenograft model; type: in vivo, mouse; conditions: vs control hIgG4-Lys-ADC
Description: as §3, §4

Calu-6 xenograft = assay: Calu-6 non-small-cell-lung cancer xenograft model; type: in vivo, mouse
Description: as §3, §4

[2] = tested on: colorectal cancer PDX tumors; assay: Colorectal cancer PDX models; type: in vivo, mouse; conditions: 1 or 3 mg/kg weekly, four doses
Text: Body weight can also be assessed regularly.
Colorectal tumor samples from 37 human colorectal cancer patients were individually implanted into different immunocompromised mice (i.e., each mouse carried one tumor derived from a patient's […] tumor) essentially as described above in this Example 13.

For “MET-ADC#1: emibetuzumab lysine-conjugated via (2,5-dioxopyrrolidin-1-yl) 2-azidoacetate and Octyne-β-Glucn-MMAE”, the “MET agonist activity (induction of pan-AKT phosphorylation)” value [1] was “same low to no agonist activity as its unconjugated parental antibody, emibetuzumab; also recorded: does not have increased agonist activity as compared with emibetuzumab”, the “Sensitive/ Resistant” value (CFPAC-1) was “R” and the “Sensitive/ Resistant” value (HPAF-II) was “S”. The “Sensitive/ Resistant” value (Panc-1) was “R”, the “Sensitive/ Resistant” value (SW 1990) was “R” and the “Sensitive/ Resistant” value (HT-29 cells; HT29, Colorectal Ca) was “S”. For the same substance, the “cell killing activity in HT-29 cells” value (HT-29 cells; HT-29 cells) was “kills MET expressing HT-29 tumor cells better than the parental anti-MET antibody, emibetuzumab, free MMAE, or a combination of emibetuzumab and free MMAE; also recorded: highly potent in killing HT-29 cells”, the “greater potency in killing HT-29 tumors cells as compared to ABBV-399” value (HT-29 cells; HT-29 cells) was 200 fold and the “cell killing activity in RKO cells” value (RKO) was “killed; also recorded: highly potent in killing RKO cells”. For the same substance, the “cell killing activity in LS411N cells” value (LS411N; LS411N (BRAF, PIK3) colon cancer cells) was “killed”, the “Sensitive/ Resistant” value (LS411N; LS411N, Colorectal Ca) was “S” and the “Sensitive/ Resistant” value (HCT-116) was “R”. For the same substance, the “Sensitive/ Resistant” value (Caco-2) was “R”, the “Sensitive/ Resistant” value (SNU1196) was “R” and the “Sensitive/ Resistant” value (NCI-H292) was “S”. The “Sensitive/ Resistant” value (OV79) was “S”, the “Sensitive/ Resistant” value (A204) was “R” and the “Sensitive/ Resistant” value (RPTEC) was “R”. The anti-tumor activity (BxPC-3 xenograft) was “dramatic anti-tumor activity”, the anti-tumor activity (KP-4 xenograft) was “dramatic anti-tumor activity” and the antitumor efficacy (Calu-6 xenograft) was “initial tumor regression and stable disease status”. The “Complete Response (CR)” value ([2]; 37 PDX) was 5.4% and the “activity in colorectal cancer PDX models” value ([2]; vs control hIgG4-ADC) was “little activity”.

Source: patent US11167039B2, “MET antibody drug conjugates” (priority 2016, dated 2021)
